Measurements: ChEMBL document CHEMBL1145852, “Drug rings database with web interface. A tool for identifying alternative chemical rings in lead discovery programs” (J Med Chem, 2003)

Target: T1, Endothelin-1 receptor (Homo sapiens, UniProt P25101)
T1 sequence (P25101 whole entry): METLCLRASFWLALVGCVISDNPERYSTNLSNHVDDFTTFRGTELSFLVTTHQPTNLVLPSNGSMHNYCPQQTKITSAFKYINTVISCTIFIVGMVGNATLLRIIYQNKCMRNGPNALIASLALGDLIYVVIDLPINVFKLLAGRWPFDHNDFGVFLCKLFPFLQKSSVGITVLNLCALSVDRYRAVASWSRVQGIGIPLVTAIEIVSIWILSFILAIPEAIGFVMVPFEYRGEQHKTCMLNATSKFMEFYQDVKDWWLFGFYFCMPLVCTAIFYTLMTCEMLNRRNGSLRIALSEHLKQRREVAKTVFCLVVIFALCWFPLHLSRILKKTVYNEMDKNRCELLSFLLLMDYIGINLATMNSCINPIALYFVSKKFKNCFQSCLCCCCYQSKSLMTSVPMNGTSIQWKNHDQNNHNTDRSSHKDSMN
Assay: Potency at Endothelin A receptor was determined

Row | IC50 [µM] | Compound
1 | 0.15 | COc1cc2c(-c3ccc4c(c3)OCO4)c(C(=O)O)n(Cc3ccc4c(c3)OCO4)c2cc1OC
2 | 0.033 | COc1cc2c(-c3ccc4c(c3)OCO4)c(C(=O)O)n(Cc3ccc4nsnc4c3)c2cc1OC
3 | 0.097 | CCCOc1ccc2c(c1)c(-c1ccc3c(c1)OCO3)c(C(=O)O)n2Cc1ccc2nsnc2c1
4 | 0.25 | CCCOc1ccc2c(c1)c(-c1ccc3c(c1)OCO3)c(C(=O)O)n2Cc1ccc2c(c1)OCO2
5 | 2.5 | CCCOc1ccc2c(c1)c(-c1ccc3c(c1)OCO3)c(C(=O)O)n2Cc1ccc2nonc2c1
